Experimental findings from the OligoGym collection are described below.

“And” between values parts separate entries of the source, which are not always exact repeats. Identical values can stand only once. HELM strings list units from the 5' end as sugar, base in round brackets, then linkage (d deoxyribose, r ribose, m 2'-O-methyl, p phosphodiester). Strings are as the collection lists them; they lack the last nucleoside at the 3' end of the tested compound. [moe] = 2'-O-(2-methoxyethyl) (MOE); [sp] = phosphorothioate linkage; [m5C] = 5-methylcytosine

The series deals with SMN2. Description: mouse, dose not given. To be noted: ASO.

The substance “RNA1{[moe](T)[sp].[moe](T)[sp].[moe]([m5C])[sp].[moe](A)[sp].[moe]([m5C])[sp].[moe](T)[sp].[moe](T)[sp].[moe](T)[sp].[moe]([m5C])[sp].[moe](A)[sp].[moe](T)[sp].[moe](A)[sp].[moe](A)[sp].[moe](T)[sp].[moe](G)[sp].[moe]([m5C])p.[moe](T)[sp].[moe](G)}$$$$ (last 3' nucleoside missing)” displayed a 3 h FOB score of 1.75 score 0-7.

For “RNA1{[moe](T)[sp].[moe](T)[sp].[moe]([m5C])[sp].[moe](A)[sp].[moe]([m5C])[sp].[moe](T)[sp].[moe](T)[sp].[moe](T)[sp].[moe]([m5C])[sp].[moe](A)[sp].[moe](T)[sp].[moe](A)[sp].[moe](A)[sp].[moe](T)p.[moe](G)[sp].[moe]([m5C])p.[moe](T)[sp].[moe](G)}$$$$ (last 3' nucleoside missing)”, the 3 h FOB score was found to be 1 score 0-7.

In the case of “RNA1{[moe](T)[sp].[moe](T)[sp].[moe]([m5C])[sp].[moe](A)[sp].[moe]([m5C])[sp].[moe](T)[sp].[moe](T)[sp].[moe](T)[sp].[moe]([m5C])p.[moe](A)[sp].[moe](T)[sp].[moe](A)[sp].[moe](A)[sp].[moe](T)[sp].[moe](G)[sp].[moe]([m5C])[sp].[moe](T)[sp].[moe](G)}$$$$ (last 3' nucleoside missing)”, the 3 h FOB score is 3.75 score 0-7.

Substance “RNA1{[moe](T)[sp].[moe](T)[sp].[moe]([m5C])[sp].[moe](A)[sp].[moe]([m5C])[sp].[moe](T)[sp].[moe](T)[sp].[moe](T)[sp].[moe]([m5C])p.[moe](A)[sp].[moe](T)[sp].[moe](A)[sp].[moe](A)[sp].[moe](T)[sp].[moe](G)[sp].[moe]([m5C])p.[moe](T)[sp].[moe](G)}$$$$ (last 3' nucleoside missing)” displayed a 3 h FOB score of 2 score 0-7.

“RNA1{[moe](T)[sp].[moe](T)p.[moe]([m5C])[sp].[moe](A)[sp].[moe]([m5C])[sp].[moe](T)[sp].[moe](T)[sp].[moe](T)[sp].[moe]([m5C])[sp].[moe](A)[sp].[moe](T)[sp].[moe](A)[sp].[moe](A)[sp].[moe](T)[sp].[moe](G)[sp].[moe]([m5C])[sp].[moe](T)[sp].[moe](G)}$$$$ (last 3' nucleoside missing)” registered a 3 h FOB score of 3 score 0-7.

As to “RNA1{[moe](T)[sp].[moe](T)p.[moe]([m5C])[sp].[moe](A)[sp].[moe]([m5C])[sp].[moe](T)[sp].[moe](T)[sp].[moe](T)[sp].[moe]([m5C])[sp].[moe](A)[sp].[moe](T)[sp].[moe](A)[sp].[moe](A)[sp].[moe](T)[sp].[moe](G)[sp].[moe]([m5C])p.[moe](T)[sp].[moe](G)}$$$$ (last 3' nucleoside missing)”, the 3 h FOB score is 1 score 0-7.

In the case of “RNA1{[moe](T)[sp].[moe](T)p.[moe]([m5C])[sp].[moe](A)[sp].[moe]([m5C])[sp].[moe](T)[sp].[moe](T)[sp].[moe](T)[sp].[moe]([m5C])p.[moe](A)[sp].[moe](T)[sp].[moe](A)[sp].[moe](A)[sp].[moe](T)[sp].[moe](G)[sp].[moe]([m5C])[sp].[moe](T)[sp].[moe](G)}$$$$ (last 3' nucleoside missing)”, the 3 h FOB score was 2.5 score 0-7.

“RNA1{[moe](T)[sp].[moe](T)p.[moe]([m5C])[sp].[moe](A)p.[moe]([m5C])[sp].[moe](T)[sp].[moe](T)[sp].[moe](T)[sp].[moe]([m5C])[sp].[moe](A)[sp].[moe](T)[sp].[moe](A)[sp].[moe](A)[sp].[moe](T)[sp].[moe](G)[sp].[moe]([m5C])[sp].[moe](T)[sp].[moe](G)}$$$$ (last 3' nucleoside missing)”: the 3 h FOB score is 2.25 score 0-7.

With “RNA1{[moe](T)[sp].[moe]([m5C])[sp].[moe](A)[sp].[moe]([m5C])[sp].[moe](T)[sp].[moe](T)[sp].[moe](T)[sp].[moe]([m5C])[sp].[moe](A)[sp].[moe](T)[sp].[moe](A)[sp].[moe](A)[sp].[moe](T)[sp].[moe](G)[sp].[moe]([m5C])[sp].[moe](T)[sp].[moe](G)[sp].[moe](G)[sp].[moe]([m5C])}$$$$ (last 3' nucleoside missing)”, the 3 h FOB score was determined as 0 score 0-7.

Take “RNA1{[moe](T)[sp].[moe]([m5C])[sp].[moe](A)[sp].[moe]([m5C])[sp].[moe](T)[sp].[moe](T)[sp].[moe](T)[sp].[moe]([m5C])[sp].[moe](A)[sp].[moe](T)[sp].[moe](A)[sp].[moe](A)[sp].[moe](T)[sp].[moe](G)[sp].[moe]([m5C])[sp].[moe](T)[sp].[moe](G)[sp].[moe](G)p.[moe](A)}$$$$ (last 3' nucleoside missing)”: the 3 h FOB score is 3.75 score 0-7 and 4 score 0-7 (3×).

Regarding “RNA1{[moe](T)[sp].[moe]([m5C])[sp].[moe](A)[sp].[moe]([m5C])[sp].[moe](T)[sp].[moe](T)[sp].[moe](T)[sp].[moe]([m5C])[sp].[moe](A)[sp].[moe](T)[sp].[moe](A)[sp].[moe](A)[sp].[moe](T)[sp].[moe](G)[sp].[moe]([m5C])[sp].[moe](T)[sp].[moe](G)[sp].[moe](G)p.[moe](T)}$$$$ (last 3' nucleoside missing)”, the 3 h FOB score was 4 score 0-7.

Consider “RNA1{[moe](T)[sp].[moe]([m5C])[sp].[moe](A)[sp].[moe]([m5C])[sp].[moe](T)[sp].[moe](T)[sp].[moe](T)[sp].[moe]([m5C])[sp].[moe](A)[sp].[moe](T)[sp].[moe](A)[sp].[moe](A)[sp].[moe](T)[sp].[moe](G)[sp].[moe]([m5C])[sp].[moe](T)[sp].[moe](G)[sp].[moe](G)p.d(A)}$$$$ (last 3' nucleoside missing)”, for which the 3 h FOB score was 4 score 0-7 (2×) and 4.25 score 0-7 (2×) and 3.75 score 0-7 (2×).

Take “RNA1{[moe](T)[sp].[moe]([m5C])[sp].[moe](A)[sp].[moe]([m5C])[sp].[moe](T)[sp].[moe](T)[sp].[moe](T)[sp].[moe]([m5C])[sp].[moe](A)[sp].[moe](T)[sp].[moe](A)[sp].[moe](A)[sp].[moe](T)[sp].[moe](G)[sp].[moe]([m5C])[sp].[moe](T)[sp].[moe](G)[sp].[moe](G)p.d([m5C])}$$$$ (last 3' nucleoside missing)”: the 3 h FOB score was 4 score 0-7 (2×) and 3.75 score 0-7 (2×) and 3.5 score 0-7.

Turning to “RNA1{[moe](T)[sp].[moe]([m5C])[sp].[moe](A)[sp].[moe]([m5C])[sp].[moe](T)[sp].[moe](T)[sp].[moe](T)[sp].[moe]([m5C])[sp].[moe](A)[sp].[moe](T)[sp].[moe](A)[sp].[moe](A)[sp].[moe](T)[sp].[moe](G)[sp].[moe]([m5C])p.[moe](T)[sp].[moe](G)[sp].[moe](G)}$$$$ (last 3' nucleoside missing)”, the 3 h FOB score is 2.25 score 0-7 (2×) and 2.5 score 0-7 and 2 score 0-7.

The substance “RNA1{[moe](T)[sp].[moe]([m5C])[sp].[moe](A)[sp].[moe]([m5C])[sp].[moe](T)[sp].[moe](T)[sp].[moe](T)[sp].[moe]([m5C])[sp].[moe](A)[sp].[moe](T)[sp].[moe](A)[sp].[moe](A)[sp].[moe](T)[sp].[moe](G)[sp].[moe]([m5C])p.[moe](T)[sp].[moe](G)}$$$$ (last 3' nucleoside missing)” gave a 3 h FOB score of 2.75 score 0-7.

Consider “RNA1{[moe](T)[sp].[moe]([m5C])[sp].[moe](A)[sp].[moe]([m5C])[sp].[moe](T)[sp].[moe](T)[sp].[moe](T)[sp].[moe]([m5C])[sp].[moe](A)[sp].[moe](T)[sp].[moe](A)[sp].[moe](A)[sp].[moe](T)[sp].[moe](G)p.[moe]([m5C])[sp].[moe](T)[sp].[moe](G)}$$$$ (last 3' nucleoside missing)”, for which the 3 h FOB score stood at 3.75 score 0-7.

“RNA1{[moe](T)[sp].[moe]([m5C])[sp].[moe](A)[sp].[moe]([m5C])[sp].[moe](T)[sp].[moe](T)[sp].[moe](T)[sp].[moe]([m5C])[sp].[moe](A)[sp].[moe](T)[sp].[moe](A)[sp].[moe](A)[sp].[moe](T)[sp].[moe](G)p.[moe]([m5C])p.[moe](T)[sp].[moe](G)}$$$$ (last 3' nucleoside missing)”: the 3 h FOB score is 3.5 score 0-7.

On to “RNA1{[moe](T)[sp].[moe]([m5C])[sp].[moe](A)[sp].[moe]([m5C])[sp].[moe](T)[sp].[moe](T)[sp].[moe](T)[sp].[moe]([m5C])[sp].[moe](A)[sp].[moe](T)[sp].[moe](A)[sp].[moe](A)[sp].[moe](T)p.[moe](G)[sp].[moe]([m5C])p.[moe](T)[sp].[moe](G)[sp].[moe](G)}$$$$ (last 3' nucleoside missing)”, for which the 3 h FOB score was 1 score 0-7 and 2 score 0-7 and 1.25 score 0-7 (2×).

“RNA1{[moe](T)[sp].[moe]([m5C])[sp].[moe](A)[sp].[moe]([m5C])[sp].[moe](T)[sp].[moe](T)[sp].[moe](T)[sp].[moe]([m5C])[sp].[moe](A)[sp].[moe](T)[sp].[moe](A)[sp].[moe](A)[sp].[moe](T)p.[moe](G)[sp].[moe]([m5C])p.[moe](T)[sp].[moe](G)}$$$$ (last 3' nucleoside missing)” returned a 3 h FOB score of 3 score 0-7.

Substance “RNA1{[moe](T)[sp].[moe]([m5C])[sp].[moe](A)[sp].[moe]([m5C])[sp].[moe](T)[sp].[moe](T)[sp].[moe](T)[sp].[moe]([m5C])[sp].[moe](A)[sp].[moe](T)[sp].[moe](A)[sp].[moe](A)p.[moe](T)[sp].[moe](G)[sp].[moe]([m5C])[sp].[moe](T)[sp].[moe](G)}$$$$ (last 3' nucleoside missing)” had a 3 h FOB score of 3.5 score 0-7.

As for “RNA1{[moe](T)[sp].[moe]([m5C])[sp].[moe](A)[sp].[moe]([m5C])[sp].[moe](T)[sp].[moe](T)[sp].[moe](T)[sp].[moe]([m5C])[sp].[moe](A)[sp].[moe](T)[sp].[moe](A)[sp].[moe](A)p.[moe](T)[sp].[moe](G)p.[moe]([m5C])[sp].[moe](T)[sp].[moe](G)}$$$$ (last 3' nucleoside missing)”, the 3 h FOB score worked out at 2.5 score 0-7.

Turning to “RNA1{[moe](T)[sp].[moe]([m5C])[sp].[moe](A)[sp].[moe]([m5C])[sp].[moe](T)[sp].[moe](T)[sp].[moe](T)[sp].[moe]([m5C])[sp].[moe](A)[sp].[moe](T)[sp].[moe](A)p.[moe](A)[sp].[moe](T)[sp].[moe](G)p.[moe]([m5C])[sp].[moe](T)[sp].[moe](G)}$$$$ (last 3' nucleoside missing)”, the 3 h FOB score came to 2 score 0-7.
